Patent US6677333B1, “2H-phthalazin-1-one derivatives and drug containing its derivatives as active ingredient” (Ono Pharmaceutical Co., Ltd., priority 1999, dated 2004)
Counter-ions that a name gives are not always drawn.

Biological target: T1, PARP (Homo sapiens, UniProt P09874)
T1 construct: purchased TREVIGEN
Assay: Enzyme assay in vitro (PARP inhibitory activity)
Assay type: biochemical
Settings: PARP (TREVIGEN), activated DNA, 10 minutes reaction, 100% of control = distilled water; example 5 tested as trifluoro acetate
Method: The below procedure was carried out with 96 well plate. The reaction mixture contained 50 mM Tris/HCl (pH 8.0, WAKO), 10 mM MgCl2, 5 mM dithiothreitol (sigma), and 0.5 mg/mL activated DNA in 80 μL. The 10 μL of test compound was added to the reaction mixture and the reaction was started by addition of 10 μL of […] PARP (TREVIGEN). The reaction was terminated at 10 minutes by addition of 100 μL of 20% trichloroacetic acid. The reaction product was collected on a glass fiber filter (GF/C, PACKARD). The radioactivity was measured by topcount (PACKARD). Inhibitory activity of the compound was represented by 50% inhibitory concentration (IC50) calculated 100% of control (distilled water).

T1 sequence (P09874 whole entry): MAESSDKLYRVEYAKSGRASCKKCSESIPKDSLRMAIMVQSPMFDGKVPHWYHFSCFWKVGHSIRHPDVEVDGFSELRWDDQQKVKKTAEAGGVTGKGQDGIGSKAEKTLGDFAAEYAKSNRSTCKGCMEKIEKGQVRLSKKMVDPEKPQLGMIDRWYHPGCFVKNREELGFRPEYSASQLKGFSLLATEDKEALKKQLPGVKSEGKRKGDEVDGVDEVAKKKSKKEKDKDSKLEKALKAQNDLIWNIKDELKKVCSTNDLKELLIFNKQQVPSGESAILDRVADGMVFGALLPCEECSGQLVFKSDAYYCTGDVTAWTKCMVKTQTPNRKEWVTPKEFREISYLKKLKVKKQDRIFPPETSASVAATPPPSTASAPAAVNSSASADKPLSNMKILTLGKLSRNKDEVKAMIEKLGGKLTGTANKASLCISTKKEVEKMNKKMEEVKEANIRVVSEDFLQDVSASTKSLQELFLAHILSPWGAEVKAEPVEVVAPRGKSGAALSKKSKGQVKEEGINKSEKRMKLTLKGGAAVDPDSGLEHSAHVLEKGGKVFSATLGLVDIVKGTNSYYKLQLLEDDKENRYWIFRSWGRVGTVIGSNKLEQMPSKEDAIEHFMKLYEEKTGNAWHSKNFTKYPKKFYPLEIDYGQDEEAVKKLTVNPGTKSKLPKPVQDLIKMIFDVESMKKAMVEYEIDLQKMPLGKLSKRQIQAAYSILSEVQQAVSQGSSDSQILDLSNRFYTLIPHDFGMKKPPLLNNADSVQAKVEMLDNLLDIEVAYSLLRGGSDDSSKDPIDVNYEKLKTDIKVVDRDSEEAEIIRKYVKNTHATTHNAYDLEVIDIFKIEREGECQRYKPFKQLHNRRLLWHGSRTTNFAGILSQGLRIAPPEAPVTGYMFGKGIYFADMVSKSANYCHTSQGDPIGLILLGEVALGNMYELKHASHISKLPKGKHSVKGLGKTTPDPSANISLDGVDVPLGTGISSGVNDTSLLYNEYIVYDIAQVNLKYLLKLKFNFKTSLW

IC50	Structure (SMILES)
50 nM	NCCSCC(=O)Nc1cccc(-c2n[nH]c(=O)c3ccccc23)c1 [5(10), 4-(3-(2-(2-Aminoethylthio)acetylamino)phenyl)-2H-phthalazin-1-one Hydrochloride]
42 nM	NCCCCC(=O)Nc1cccc(-c2n[nH]c(=O)c3ccccc23)c1 [compound 5]
